Measurements from patent US8563741B2, “CDK inhibitors containing a zinc binding moiety” (Curis, Inc., priority 2007, dated 2013).

Assays:
[1] = target: T1, CDK2/cyclinE (Homo sapiens, UniProt P24941); assay: CDK activity assay with p33 ATP, CDK2/cyclinE; format: biochemical; details: 1 μM ATP
T1 construct: C-terminal 6His-tagged, recombinant full-length CDK2 (MW=34 kDa); 6His (C); made in house; host or cells: Sf21 cells (baculovirus)
Method: CDK2/cyclinE (Accession Number for CDK2; EMBL M68520, for cyclinE1; GenBank NM_001238):
C-terminal 6His-tagged, recombinant full-length CDK2 (MW=34 kDa) in complex with N-terminal GST-tagged, recombinant full-length cyclinE1 (MW=74 kDa) were expressed with baculovirus system in Sf21 cells. Recombinant proteins were purified using Ni2+/NTA agarose and the purity of recombinant protein complex was measured to be around 76% by SDS-PAGE and Coomassie blue staining. Specific Activity of recombinant CDK2/cyclinE was 1336 U/mg, where one unit of CDK2/cylinE1 activity is defined as 1 nmol phosphate incorporated into 0.1 mg/ml histone H1 per minute at 30° C. with a final ATP concentration of 100 μM. Enzyme was stored with concentration of 0.1 mg/ml in 50 mM Tris/HCl pH 7.5, 150 mM NaCl, 0.03% Brij-35, 0.1 mM EGTA, 0.2 mM PMSF, 1 mM benzamidine, 0.1% 2-mercaptoethanol, 270 mM sucrose.

[2] = test system: HDAC; assay: HDAC fluorimetric assay kit (AK-500, Biomol), HeLa nuclear extract; format: biochemical
Method: HDAC inhibitors were screened using an HDAC fluorimetric assay kit (AK-500, Biomol, Plymouth Meeting, Pa.). […] Each assay was setup as follows: Defrosted all kit components and kept on ice until use. Diluted HeLa nuclear extract 1:29 in Assay Buffer (50 mM Tris/Cl, pH 8.0, 137 mM NaCl, 2.7 mM KCl, 1 mM MgCl2). Prepared dilutions of Trichostatin A (TSA, positive control) and tested compounds in assay buffer (5× of final concentration). Diluted Fluor de LysTM Substrate in assay buffer to 100 uM (50 fold=2× final). Diluted Fluor de LysTM developer concentrate 20-fold (e.g. 50 μl plus 950 μl Assay Buffer) in cold assay buffer. Second, diluted the 0.2 mM Trichostatin A 100-fold in the 1× Developer (e.g. 10 μl in 1 ml; final Trichostatin A concentration in the 1× Developer=2 μM; final concentration after addition to HDAC/Substrate reaction=1 μM). Added Assay buffer, diluted trichostatin A or test inhibitor to appropriate wells of the microtiter plate. Added diluted HeLa extract or other HDAC sample to all wells except for negative controls. Allowed diluted Fluor de LysTM Substrate and the samples in the microtiter plate to equilibrate to assay temperature (e.g. 25 or 37° C. Initiated HDAC reactions by adding diluted substrate (25 μl) to each well and mixing thoroughly. Allowed HDAC reactions to proceed for 1 hour and then stopped them by addition of Fluor de LysTM Developer (50 μl). Incubated plate at room temperature (25° C.) for 10-15 min. Read samples in a microtiter-plate reading fluorimeter capable of excitation at a wavelength in the range 350-380 nm and detection of emitted light in the range 440-460 nm.

SMILES	IC50 [1]	IC50 [2]	melting point	CDK2/cyclinE IC50 [1]
CC(C)(C)c1cnc(CSc2cnc(NC(=O)c3ccc(OCCCCCCC(=O)NO)cc3)s2)o1 [Compound 40]	< 100 nM	100 to 1000 nM	–	–
CC(C)(C)c1cnc(CSc2cnc(NC(=O)c3ccc(/C=C/C(=O)NO)cc3)s2)o1 [Compound 18, (E)-N-(5-((5-tert-butyloxazol-2-yl)methylthio)thiazol-2-yl)-4-(3-(hydroxylamino)-3-oxoprop-1-enyl)benzamide]	< 100 nM	100 to 1000 nM	–	–
CC(C)(C)c1cnc(CSc2nnc(NC(=O)Cc3ccc(OCCCC(=O)NO)cc3)s2)o1 [Compound 30, 4-(4-(2-(5-((5-tert-butyloxazol-2-yl)methylthio)-1,3,4-thiadiazol-2-ylamino)-2-oxoethyl)phenoxy)-N-hydroxybutanamide]	1000 to 10000 nM	100 to 1000 nM	–	–
CC(C)(C)c1cnc(CSc2cnc(NC(=O)Cc3ccc(OCCCCC(=O)NO)cc3)s2)o1 [Compound 10, 5-(4-(2-(5-((5-tert-butyloxazol-2-yl)methylthio)thiazol-2-ylamino)-2-oxoethyl)phenoxy)-N-hydroxypentanamide]	< 100 nM	100 to 1000 nM	–	–
CC(C)(C)c1cnc(CSc2cnc(NC(=O)Oc3ccc(OCCCC(=O)NO)cc3)s2)o1 [Compound 28, 4-(4-(hydroxyamino)-4-oxobutoxy)phenyl-5-((5-tert-butyloxazol-2-yl)methylthio)thiazol-2-ylcarbamate]	< 100 nM	–	–	–
CC(C)(C)c1cnc(CSc2cnc(NC(=O)c3ccc(OCCCCCC(=O)NO)cc3)s2)o1 [Compound 25, N-(5-((5-tert-butyloxazol-2-yl)methylthio)thiazol-2-yl)-4-(6-(hydroxyamino)-6-oxohexyloxy)benzamide]	< 100 nM	100 to 1000 nM	–	–
CC(C)(C)c1cnc(CSc2cnc(NC(=O)c3cccc(/C=C/C(=O)NO)c3)s2)o1 [Compound 19, (E)-N-(5-((5-tert-butyloxazol-2-yl)methylthio)-thiazol-2-yl)-3-(3-(hydroxylamino)-3-oxoprop-1-enyl)benzamide]	< 100 nM	100 to 1000 nM	–	–
CC(C)(C)c1cnc(CSc2cnc(NS(=O)(=O)c3ccc(/C=C/C(=O)NO)cc3)s2)o1 [Compound 34, (E)-3-(4-(N-(5-((5-tert-butyloxazol-2-yl)methylthio)-thiazol-2-yl)sulfamoyl)phenyl)-N-hydroxyacrylamide]	–	< 100 nM	–	No
CC(Sc1cnc(NC(=O)Cc2ccc(OCCCC(=O)NO)cc2)s1)c1ncc(C(C)(C)C)o1 (centres unmarked) [Compound 26, 4-(4-(2-(5-(1-(5-Tert-butyloxazol-2-yl)ethylthio)-thiazol-2-ylamino)-2-oxoethyl)phenoxy)-N-hydroxybutanamide]	< 100 nM	100 to 1000 nM	–	–
CC(C)(C)c1cnc(CSc2cnc(NS(=O)(=O)c3cccc(/C=C/C(=O)NO)c3)s2)o1 [Compound 32, (E)-3-(3-(N-(5-((5-tert-butyloxazol-2-yl)methylthio)thiazol-2-yl)sulfamoyl)phenyl)-N-hydroxyacrylamide]	1000 to 10000 nM	< 100 nM	–	–
CC(C)(C)c1cnc(CSc2cnc(NC(=O)C(C)(C)c3ccc(OCCCC(=O)NO)cc3)s2)o1 [Compound 27, 4-(4-(1-(5-((5-Tert-butyloxazol-2-yl)methylthio)-thiazol-2-ylamino)-2-methyl-1-oxopropan-2-yl)phenoxy)-N-hydroxybutanamide]	< 100 nM	100 to 1000 nM	–	–
CC(C)(C)c1cnc(CSc2nnc(NC(=O)CCCCCCC(=O)NO)s2)o1 [Compound 22, N^1-(5-((5-tert-butyloxazol-2-yl)methylthio)-1,3,4-thiadiazol-2-yl)-N^8-hydroxyoctanediamide]	1000 to 10000 nM	–	–	–
CC(C)(C)c1cnc(CSc2cnc(NS(=O)(=O)c3ccc(C(=O)NO)cc3)s2)o1 [Compound 33, 4-(N-(5-((5-tert-butyloxazol-2-yl)methylthio)-thiazol-2-yl)sulfamoyl)-N-hydroxybenzamide]	–	100 to 1000 nM	–	No
CC(C)(C)c1cnc(CSc2cnc(NCC3CCN(c4ncc(C(=O)NO)cn4)CC3)s2)o1 [Compound 21, 2-(4-((5-((5-tert-butyloxazol-2-yl)methylthio)-thiazol-2-ylamino)methyl)piperidin-1-yl)-N-hydroxypyrimidine-5-carboxamide]	< 100 nM	< 100 nM	–	–
CC(C)(C)c1cnc(CSc2cnc(NC(=O)Cc3ccc(OCCCCCC(=O)NO)cc3)s2)o1 [Compound 11]	< 100 nM	100 to 1000 nM	–	–

Other lines, results leading:

IC50 [1]	IC50 [2]	melting point	CDK2/cyclinE IC50 [1]	SMILES
< 100 nM	1000 to 10000 nM	93 to 97 °C	–	CC(C)(C)c1cnc(CSc2cnc(NC(=O)C3CCN(CCCCC(=O)NO)CC3)s2)o1 [Compound 2, N-(5-((5-tert-butyloxazol-2-yl)methylthio)thiazol-2-yl)-1-(5-(hydroxyamino)-5-oxopentyl)piperidine-4-carboxamide]
< 100 nM	100 to 1000 nM	–	–	CC(C)(C)c1cnc(CSc2cnc(NC(=O)CCCNCCCCCCC(=O)NO)s2)o1 [Compound 17, 7-(4-(5-((5-tert-butyloxazol-2-yl)methylthio)-thiazol-2-ylamino)-4-oxobutylamino)-N-hydroxyheptanamide]
< 100 nM	< 100 nM	–	–	CC(C(=O)Nc1ncc(SCc2ncc(C(C)(C)C)o2)s1)c1ccc(OCCCC(=O)NO)cc1 (centres unmarked) [Compound 31, 4-(4-(1-(5-((5-Tert-butyloxazol-2-yl)methylthio)-thiazol-2-ylamino)-1-oxopropan-2-yl)phenoxy)-N-hydroxybutanamide]
< 100 nM	–	–	–	CC(C)(C)c1cnc(CSc2cnc(NC(=O)c3ccc(OCCCCC(=O)NO)cc3)s2)o1 [Compound 24, N-(5-((5-tert-butyloxazol-2-yl)methylthio)thiazol-2-yl)-4-(5-(hydroxyamino)-5-oxopentyloxy)benzamide]
< 100 nM	100 to 1000 nM	–	–	CC(C)(C)c1cnc(CSc2cnc(NC(=O)c3ccc(OCCCC(=O)NO)cc3)s2)o1 [Compound 39]
–	100 to 1000 nM	–	–	CC(C)(C)c1cnc(CSc2cnc(NC(=O)CCCNCCCCCC(=O)NO)s2)o1 [Compound 16, 6-(4-(5-((5-tert-butyloxazol-2-yl)methylthio)-thiazol-2-ylamino)-4-oxobutylamino)-N-hydroxyhexanamide]
< 100 nM	100 to 1000 nM	113 to 115 °C	–	CC(C)(C)c1cnc(CSc2cnc(NC(=O)C3CCN(CCCCCCC(=O)NO)CC3)s2)o1 [Compound 4, N-(5-((5-tert-butyloxazol-2-yl)methylthio)thiazol-2-yl)-1-(7-(hydroxyamino)-7-oxoheptyl)piperidine-4-carboxamide]
< 100 nM	100 to 1000 nM	–	–	CC(C)(C)c1cnc(CSc2cnc(NC(=O)Nc3ccc(OCCCC(=O)NO)cc3)s2)o1 [Compound 29, 4-(4-(3-(5-((5-Tert-butyloxazol-2-yl)methylthio)-thiazol-2-yl)ureido)phenoxy)-N-hydroxybutanamide]
< 100 nM	< 100 nM	93 to 95 °C	–	CC(C)(C)c1cnc(CSc2cnc(NC(=O)Cc3ccc(OCCC(=O)NO)cc3)s2)o1 [Compound 23, 3-(4-(2-(5-((5-tert-butyloxazol-2-yl)methylthio)-thiazol-2-ylamino)-2-oxoethyl)phenoxy)-N-hydroxypropanamide]
< 100 nM	1000 to 10000 nM	127 to 130 °C	–	CC(C)(C)c1cnc(CSc2cnc(NC(=O)C3CCN(CCCCCC(=O)NO)CC3)s2)o1 [Compound 3, N-(5-((5-tert-butyloxazol-2-yl)methylthio)thiazol-2-yl)-1-(6-(hydroxyamino)-6-oxohexyl)piperidine-4-carboxamide]
< 100 nM	> 10000 nM	176 to 180 °C	–	CC(C)(C)c1cnc(CSc2cnc(NC(=O)C3CCN(CCCC(=O)NO)CC3)s2)o1 [Compound 1, N-(5-((5-tert-butyloxazol-2-yl)methylthio)thiazol-2-yl)-1-(4-(hydroxyamino)-4-oxobutyl)piperidine-4-carboxamide]
